Read-outs that look alike come from different tables or passages of the source.
Experiments:
[1] = test system: A. baumannii AB5075; experiment: Growth inhibition assay in LB medium (OD600); assay type: cell-based, Acinetobacter baumannii
[2] = test system: P. aeruginosa PA14; experiment: Growth inhibition assay in nutrient medium (OD600); assay type: cell-based, Pseudomonas aeruginosa
[3] = test system: A. baumannii AB5075; experiment: Carbapenem E strip on agar with sweetener
Excerpt: The data presented is a representative image of three biological replicates±SD.

[4] = test system: A. baumannii; experiment: Crystal violet biofilm formation assay / minimum biofilm inhibition concentration; assay type: cell-based, Acinetobacter baumannii
Protocol: (§1) Biofilm formation is linked to 80% of hospital-associated infections and is a major factor in the routine failure of antibiotic therapy.
(§2) All samples were exposed to the artificial sweeteners in LB medium for 19 hours before crystal violet biofilm assay was performed. […] The data present the mean of three biological replicates±SD. *p≤0.05, *p≤0.001 versus the bacterial growth in control samples.
(§3) All samples were exposed to artificial sweeteners for 19 hours before crystal violet biofilm assay was performed.

[5] = test system: E. coli
[6] = test system: Klebsiella pneumoniae
Excerpt: (§4) N=3 biological triplicate, each with technical triplicates).

[7] = test system: A. baumannii gene expression
Protocol: Cells were spun down and washed in RNAlater to preserve mRNA. RNA was isolated using a Qiagen RNAeasy Kit with column DNAase digestion. RNA integrity was determined using a Bioanalyzer. Samples were further processed for RNA sequencing on an Illumina MiSeq with 12 million reads per sample. Quality control and adapter trimming was performed with bcl2fastq.

[8] = test system: K. pneumonia
[9] = test system: E. coli; remark: listed apart in the source
Excerpt: as §4

[10] = test system: P. aeruginosa PA14; experiment: Crystal violet biofilm formation assay / minimum biofilm inhibition concentration; assay type: cell-based, Pseudomonas aeruginosa; conditions: 3% (w/v) sucralose, […] (w/v) ace-K, LB medium, 19 hours
Protocol: as §1, §2, §3

[11] = test system: A. baumannii AB5075; set-up: species or system Acinetobacter baumannii
Protocol: In this model, porcine skin was either burnt or lacerated and the wound infected with A. baumannii AB5075 and left for 3.5 hours to allow a biofilm to form. The dressing was applied for 1 hour and viable cells were collected after treatment. […] Samples were tested in biological triplicate with technical quadruplets.
(8% (w/w)), potassium tetraborate (3% (w/w)), and PVA (3% ((w/w)) were added into a beaker and mixed with deionized water. The mixture was placed in a water bath and heated at 80° C. for three hours with watch glass while being swirled with a stirring rod every 1 hour. Once hydrogels had been obtained, they were placed in a petri dish with custom-made moulds.

[12] = test system: P. aeruginosa; experiment: Antibiotic susceptibility in the presence of sub-minimum inhibitory concentration of ace-K; assay type: cell-based, Pseudomonas aeruginosa; conditions: grown in the presence of ace-K for 19 hours
[13] = […] sweetener, 19 hours, LB medium
[14] = […] sweetener, 19 hours, 37° C.

**Q.** What does the source list for `OC[C@@H](O)[C@@H](O[C@H]1O[C@H](CO)[C@@H](O)[C@H](O)[C@H]1O)[C@H](O)[C@@H](O)CO` [maltitol, Maltitol]?
**A.** bacterial growth in the presence of sweetener [1, 13]: inhibit the growth; bacterial growth in the presence of sweetener [2, 14]: inhibit the growth

**Q.** For `C[C@@H](O)[C@H]1C(=O)N2C(C(=O)O)=C(SCCN=CN)C[C@H]12` [imipenem], which “point to which growth was inhibited on the strip” value ([3]; Control) is on record?
**A.** 21.33 ± 4.61 mg/L

**Q.** What about the “point to which growth was inhibited on the strip” value ([3]; SAC 1%) of the same molecule?
**A.** 18.67 ± 4.61 ns mg/L

**Q.** And the “point to which growth was inhibited on the strip” value ([3]; SAC […])?
**A.** 1 ± 0.43 mg/L

**Q.** How did the “concentration with significant impact on / inhibition of biofilm formation” value [4] turn out when `O=S(=O)([O-])NC1CCCCC1.[Na+]` [cyclamate, sodium cyclamate] was run?
**A.** ≥ 4%

**Q.** And the “bacterial growth in the presence of sweetener” value (“bacterial growth” below) [1]?
**A.** inhibit the growth

**Q.** And the “concentration showing significant / effective growth inhibition” value [1]?
**A.** ≥ 2%

**Q.** What about the “concentration inhibiting biofilm formation” value [5] of the same molecule?
**A.** ≥ 3%

**Q.** What about the “concentration showing significant / effective growth inhibition” value [6] of the same molecule?
**A.** ≥ 2%

**Q.** And the “number of genes significantly differentially expressed” value [7]?
**A.** 288 genes

**Q.** And the “concentration inhibiting biofilm formation” value [8]?
**A.** ≥ 3%

**Q.** What about the “bacterial growth” value [2] of the same molecule?
**A.** inhibit the growth

**Q.** What about the “concentration showing significant / effective growth inhibition” value [2] of the same molecule?
**A.** ≥ 2%

**Q.** And the “concentration showing significant / effective growth inhibition” value [9]?
**A.** ≥ 0.1%

**Q.** `OC[C@H]1O[C@H](O[C@]2(CCl)O[C@H](CCl)[C@@H](O)[C@@H]2O)[C@H](O)[C@@H](O)[C@H]1Cl` [sucralose, Sucralose] was tested. Which biofilm formation ([4]; 3% (w/v) sucralose, […] (w/v) ace-K, LB medium, 19 hours) did it give?
**A.** significantly inhibit biofilm formation

**Q.** And the “bacterial growth” value [1, 13]?
**A.** inhibit the growth

**Q.** What about the “bacterial growth” value [2, 14] of the same molecule?
**A.** inhibit the growth

**Q.** What about the biofilm formation [10] of the same molecule?
**A.** significantly inhibit biofilm formation

**Q.** With `OCC1O[C@@H](O[C@@H]([C@H](O)[C@@H](O)CO)[C@H](O)CO)C(O)C(O)[C@H]1O` (stereo partly drawn) [lactitol monohydrate, Lactitol] as the molecule, how does the “bacterial growth” value [1, 13] read?
**A.** inhibit the growth

**Q.** polymyxin B [reference compound] was tested. Which “log reduction in viable cells” value [11] did it give?
**A.** 3.13 log

**Q.** What about the “log reduction in viable cells” value ([11]; burn wound biofilms, gauze loaded with 1.5 mL of 0.59 mg/mL polymyxin B singularly) of the same molecule?
**A.** 2.11 log

**Q.** What about the “susceptibility to antibiotic in the presence of ace-K” value (“susceptibility to antibiotic” below) [12] of the same molecule?
**A.** increased susceptibility

**Q.** With `OC[C@@H](O)[C@H](O)[C@@H](O)CO` [xylitol, Xylitol] as the molecule, how does the “bacterial growth” value [1, 13] read?
**A.** inhibit the growth

**Q.** What about the “bacterial growth” value [2, 14] of the same molecule?
**A.** inhibit the growth

**Q.** gentamicin was tested. Which “susceptibility to antibiotic” value [12] did it give?
**A.** increased susceptibility

**Q.** How did the “bacterial growth” value [1, 13] turn out when `OC[C@@H](O)[C@@H](O)[C@H](O)[C@H](O)CO` [mannitol, Mannitol] was run?
**A.** inhibit the growth

**Q.** For piperacillin/tazobactam, which “susceptibility to antibiotic” value [12] is on record?
**A.** increased susceptibility

**Q.** Which “point to which growth was inhibited on the strip” value ([3]; Control) does the source give for `C[C@@H](O)[C@H]1C(=O)N2C(C(=O)O)=C(S[C@@H]3CN[C@H](CNS(N)(=O)=O)C3)[C@H](C)[C@H]12` [doripenem] here?
**A.** 18.67 ± 4.61 mg/L

**Q.** What about the “point to which growth was inhibited on the strip” value ([3]; SAC 1%) of the same molecule?
**A.** 13.33 ± 2.31 ns mg/L

**Q.** What about the “point to which growth was inhibited on the strip” value ([3]; SAC […]) of the same molecule?
**A.** 0.46 ± 0.07 mg/L

**Q.** For `OC[C@@H](O)[C@@H](O)[C@H](O)[C@@H](O)CO` [sorbitol], which “bacterial growth” value [2, 14] is on record?
**A.** inhibit the growth

**Q.** Which results are given for `C[C@@H](O)[C@H]1C(=O)N2C(C(=O)O)=C(S[C@@H]3CN[C@H](C(=O)N(C)C)C3)[C@H](C)[C@H]12` [meropenem]?
**A.** point to which growth was inhibited on the strip ([3]; Control): ≥32 mg/L; point to which growth was inhibited on the strip ([3]; SAC 1%): 29.33 ± 4.61 ns mg/L; point to which growth was inhibited on the strip ([3]; SAC […]): 0.54 ± 0.19 mg/L

**Q.** How did the “bacterial growth” value [1, 13] turn out when `OC[C@@H](O)[C@@H](O)CO` [erythritol, Erythritol] was run?
**A.** inhibit the growth
